We go through 20 molecules from article PMC5697638, “Identification of a Potent Phosphoinositide 3‐Kinase Pan Inhibitor Displaying a Strategic Carboxylic Acid Group and Development of Its Prodrugs” (Chemmedchem, 2017).

Common to all, as to assay type: biochemical
In assay [1] the target is T1, hPI3Kβ (PIK3CB wt/PIK3R1) (Homo sapiens, UniProt P42338).
T1 construct: purchased ProQinase, Germany 1168‐1165‐1
The assay is described as follows: lipid kinase assay (ADP-Glo), PI3Kβ. The following applies: determined at 1 μM, at least triplicate; read-out: Inhibitory activity, PI3K isoform β. The procedure: (§1) In vitro selection, lipid kinase assay: To determine the inhibitory activity of the new molecular entities on PI3K enzyme, a lipid kinase assay was performed: recombinant proteins (30 ng), human PI3Kα (PIK3CA/PIK3R1, #1161‐1165‐1 ProQinase–Germany), hPI3Kβ (PIK3CB wt/PIK3R1, #1168‐1165‐1 ProQinase, Germany), hPI3Kγ (PIK3CG, #1163‐0000‐1 ProQinase, Germany), hPI3Kδ (PIK3CD/PIK3R1, #1162–1165‐1 ProQinase, Germany), hPI3K‐C2α (PIK3C2A, #14‐906 Merck Millipore_Merck KGaA, Germany), hPI3K‐C2β (PIK3C2B, #14‐907 Merck Millipore_Merck KGaA, Germany), hPI3K‐c2γ (PIK3C2G, #1207‐0000‐1 ProQinase, Germany), and hVps34 (PIK3C3, #1160‐0000‐1 ProQinase, Germany), were incubated in kinase buffer {12.5 μL; 20 mM Tris‐HCl pH 7.5, 10 mM MgCl2, 10 μM ATP, 0.05 mg mL^−1 BSA, 0.5 mM EDTA, 5 mM HEPES pH 7.5, for PI3Kα,PI3Kβ, PI3Kγ, PI3Kδ, PI3KC‐2α, and PI3KC‐2γ; 15 mM MnCl2, 5 mM EGTA, 100 μM ATP, 50 mM HEPES pH 7.5, 100 mM NaCl, and 0.03 % CHAPS for PI3K‐C2β and VPS34 {BSA=bovine serum albumin; EDTA=ethylenediaminetetraacetic acid; HEPES=4‐(2‐hydroxyethyl)‐1‐piperazineethanesulfonic acid; EGTA=ethylene glycol‐bis(2‐aminoethylether)‐N,N,N′,N′‐tetraacetic acid; CHAPS=3‐[(3‐cholamidopropyl)dimethylammonio]‐1‐propanesulfonate}. In the reaction, the ATP concentration used for different PI3Ks was defined on the basis of the Michaelis–Menten kinetics of each enzyme, provided by the supplier. Reaction was performed in presence of 0.5 mg mL^−1 lipid micelles (1:1 phosphatidylinositol/phosphatidylserine) and in the absence (DMSO alone) or presence of increasing concentrations of each compound (from 0.1 nM to 30 μM). The mixture was kept at room temperature (RT) for 30 min for PI3Kα, PI3Kβ, PI3Kγ, PI3Kδ, PI3KC‐2α, and PI3KC‐2γ and for 1 h for PI3K‐C2β and PI3K‐C3. The amount of ADP produced in the reaction was measured by using the ADP‐Glo Kinase Assay kit from Promega (#V9102) and a luminescence reader (Glomax multi detection system, Promega, model number 9301‐010).
(§2) The residual PI3K lipid kinase activity in the presence of each molecule at different concentrations was related to the control, intended as the recombinant protein in the presence of DMSO alone and was expressed as a percentage. To derive the IC50 value, all data (% of lipid kinase activity) were plotted on a dose–response curve (Graph Pad software), and the IC50 was calculated by using nonlinear regression fit (equation [log agonist] versus response).
(In ADP-Glo the light output rises with the ADP produced.)

The target of assay [2] is T2, human PI3Kα (PIK3CA/PIK3R1) (Homo sapiens, UniProt P42336).
T2 construct: purchased ProQinase, Germany 1161‐1165‐1
T2 sequence (P42336 whole entry): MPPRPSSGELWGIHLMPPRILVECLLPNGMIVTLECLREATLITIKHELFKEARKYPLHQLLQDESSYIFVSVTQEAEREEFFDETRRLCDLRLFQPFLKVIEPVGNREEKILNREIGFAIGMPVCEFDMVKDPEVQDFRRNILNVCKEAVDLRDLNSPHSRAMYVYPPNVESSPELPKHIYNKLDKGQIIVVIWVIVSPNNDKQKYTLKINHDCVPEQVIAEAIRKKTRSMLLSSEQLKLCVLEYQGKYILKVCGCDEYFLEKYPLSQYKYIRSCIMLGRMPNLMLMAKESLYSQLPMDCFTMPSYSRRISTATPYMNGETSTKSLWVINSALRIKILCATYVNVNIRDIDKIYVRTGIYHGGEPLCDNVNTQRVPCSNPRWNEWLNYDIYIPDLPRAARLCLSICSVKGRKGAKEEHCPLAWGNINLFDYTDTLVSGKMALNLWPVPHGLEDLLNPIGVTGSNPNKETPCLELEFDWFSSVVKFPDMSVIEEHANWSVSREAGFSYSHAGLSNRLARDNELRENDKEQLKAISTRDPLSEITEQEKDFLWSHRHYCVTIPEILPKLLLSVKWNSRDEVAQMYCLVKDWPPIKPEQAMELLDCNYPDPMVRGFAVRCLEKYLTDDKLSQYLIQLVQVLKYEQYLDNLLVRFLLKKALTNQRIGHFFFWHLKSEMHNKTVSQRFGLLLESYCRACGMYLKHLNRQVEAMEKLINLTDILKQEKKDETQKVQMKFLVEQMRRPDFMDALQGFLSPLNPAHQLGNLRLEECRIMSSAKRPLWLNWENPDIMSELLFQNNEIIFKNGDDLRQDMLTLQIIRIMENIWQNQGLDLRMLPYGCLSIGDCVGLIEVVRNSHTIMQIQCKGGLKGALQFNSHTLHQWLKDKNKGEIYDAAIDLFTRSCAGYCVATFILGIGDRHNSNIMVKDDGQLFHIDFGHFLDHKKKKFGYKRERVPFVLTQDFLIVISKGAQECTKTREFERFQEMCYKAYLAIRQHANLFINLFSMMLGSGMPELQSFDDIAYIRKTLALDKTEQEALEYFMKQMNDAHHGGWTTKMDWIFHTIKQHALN
T2 sequence (P27986 whole entry partner): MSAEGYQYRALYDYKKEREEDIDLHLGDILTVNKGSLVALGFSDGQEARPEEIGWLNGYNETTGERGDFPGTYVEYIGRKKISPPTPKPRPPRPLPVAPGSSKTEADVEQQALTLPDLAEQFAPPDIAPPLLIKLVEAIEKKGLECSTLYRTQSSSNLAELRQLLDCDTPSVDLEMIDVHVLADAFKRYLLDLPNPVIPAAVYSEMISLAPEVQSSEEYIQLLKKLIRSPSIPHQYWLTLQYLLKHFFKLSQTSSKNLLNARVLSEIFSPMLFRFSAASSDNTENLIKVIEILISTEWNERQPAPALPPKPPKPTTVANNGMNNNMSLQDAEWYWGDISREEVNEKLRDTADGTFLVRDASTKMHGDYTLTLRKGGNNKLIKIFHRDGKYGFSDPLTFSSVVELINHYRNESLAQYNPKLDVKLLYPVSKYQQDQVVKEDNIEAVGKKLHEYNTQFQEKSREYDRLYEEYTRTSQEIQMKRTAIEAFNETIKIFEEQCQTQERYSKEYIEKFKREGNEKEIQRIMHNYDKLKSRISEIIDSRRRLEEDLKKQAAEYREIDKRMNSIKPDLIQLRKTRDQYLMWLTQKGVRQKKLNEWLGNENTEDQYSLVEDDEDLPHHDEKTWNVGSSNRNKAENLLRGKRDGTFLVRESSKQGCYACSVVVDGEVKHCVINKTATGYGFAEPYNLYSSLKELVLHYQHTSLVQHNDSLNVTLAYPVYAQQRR
The assay is described as follows: lipid kinase assay (ADP-Glo), PI3Kα. Particulars: for inhibition at 1 µM: determined at 1 μM, at least triplicate, read-out: Inhibitory activity, PI3K isoform α; for IC50: Table 3, analogues of 37, mean of at least three determinations, 95 % confidence intervals, read-out: IC50 against PI3Kα. As for the experimental part: as §1, §2

The target in a further assay is T3, hPI3Kγ (PIK3CG) (Homo sapiens, UniProt P48736).
T3 construct: purchased ProQinase, Germany 1163‐0000‐1
T3 sequence (P48736 whole entry): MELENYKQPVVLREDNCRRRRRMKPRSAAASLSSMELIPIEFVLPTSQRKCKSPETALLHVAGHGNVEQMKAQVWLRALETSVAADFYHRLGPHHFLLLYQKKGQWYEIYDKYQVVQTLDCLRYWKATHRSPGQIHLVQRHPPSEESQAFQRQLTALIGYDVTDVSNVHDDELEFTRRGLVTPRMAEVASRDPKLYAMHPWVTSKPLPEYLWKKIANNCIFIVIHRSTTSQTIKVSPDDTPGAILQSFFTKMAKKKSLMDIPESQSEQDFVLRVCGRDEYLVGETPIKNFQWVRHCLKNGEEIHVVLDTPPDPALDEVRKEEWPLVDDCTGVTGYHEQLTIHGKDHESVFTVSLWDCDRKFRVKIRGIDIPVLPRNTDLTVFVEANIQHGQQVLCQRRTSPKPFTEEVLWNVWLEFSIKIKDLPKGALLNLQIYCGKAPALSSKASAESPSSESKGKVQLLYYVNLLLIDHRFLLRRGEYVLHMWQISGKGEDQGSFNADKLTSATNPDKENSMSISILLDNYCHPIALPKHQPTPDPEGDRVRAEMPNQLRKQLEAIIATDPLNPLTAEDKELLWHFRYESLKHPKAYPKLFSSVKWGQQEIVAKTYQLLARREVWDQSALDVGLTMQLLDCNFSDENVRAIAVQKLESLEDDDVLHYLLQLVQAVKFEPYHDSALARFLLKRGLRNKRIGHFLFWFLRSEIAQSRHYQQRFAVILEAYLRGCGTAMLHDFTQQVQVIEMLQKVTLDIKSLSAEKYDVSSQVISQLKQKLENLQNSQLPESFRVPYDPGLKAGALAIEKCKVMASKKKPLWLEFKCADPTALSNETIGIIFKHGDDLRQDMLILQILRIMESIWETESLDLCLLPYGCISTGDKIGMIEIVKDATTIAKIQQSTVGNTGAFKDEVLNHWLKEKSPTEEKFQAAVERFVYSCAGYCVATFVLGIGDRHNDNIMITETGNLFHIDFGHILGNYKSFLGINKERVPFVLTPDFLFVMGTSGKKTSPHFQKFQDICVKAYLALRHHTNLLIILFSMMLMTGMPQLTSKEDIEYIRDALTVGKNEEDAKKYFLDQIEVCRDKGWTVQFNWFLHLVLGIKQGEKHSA
Put plainly: lipid kinase assay (ADP-Glo), PI3Kγ. Particulars: determined at 1 μM, at least triplicate; read-out: Inhibitory activity, PI3K isoform γ. As for the experimental part:
as §1, §2

A further assay has as its target T4, hPI3Kδ (PIK3CD/PIK3R1) (Homo sapiens, UniProt O00329).
T4 construct: purchased ProQinase, Germany 1162–1165‐1
Put plainly: lipid kinase assay (ADP-Glo), PI3Kδ. Particulars: determined at 1 μM, at least triplicate; read-out: Inhibitory activity, PI3K isoform δ. The procedure:
as §1, §2

A value given as a limit tells only on which side of the number the result lay.

T4 sequence (O00329 whole entry): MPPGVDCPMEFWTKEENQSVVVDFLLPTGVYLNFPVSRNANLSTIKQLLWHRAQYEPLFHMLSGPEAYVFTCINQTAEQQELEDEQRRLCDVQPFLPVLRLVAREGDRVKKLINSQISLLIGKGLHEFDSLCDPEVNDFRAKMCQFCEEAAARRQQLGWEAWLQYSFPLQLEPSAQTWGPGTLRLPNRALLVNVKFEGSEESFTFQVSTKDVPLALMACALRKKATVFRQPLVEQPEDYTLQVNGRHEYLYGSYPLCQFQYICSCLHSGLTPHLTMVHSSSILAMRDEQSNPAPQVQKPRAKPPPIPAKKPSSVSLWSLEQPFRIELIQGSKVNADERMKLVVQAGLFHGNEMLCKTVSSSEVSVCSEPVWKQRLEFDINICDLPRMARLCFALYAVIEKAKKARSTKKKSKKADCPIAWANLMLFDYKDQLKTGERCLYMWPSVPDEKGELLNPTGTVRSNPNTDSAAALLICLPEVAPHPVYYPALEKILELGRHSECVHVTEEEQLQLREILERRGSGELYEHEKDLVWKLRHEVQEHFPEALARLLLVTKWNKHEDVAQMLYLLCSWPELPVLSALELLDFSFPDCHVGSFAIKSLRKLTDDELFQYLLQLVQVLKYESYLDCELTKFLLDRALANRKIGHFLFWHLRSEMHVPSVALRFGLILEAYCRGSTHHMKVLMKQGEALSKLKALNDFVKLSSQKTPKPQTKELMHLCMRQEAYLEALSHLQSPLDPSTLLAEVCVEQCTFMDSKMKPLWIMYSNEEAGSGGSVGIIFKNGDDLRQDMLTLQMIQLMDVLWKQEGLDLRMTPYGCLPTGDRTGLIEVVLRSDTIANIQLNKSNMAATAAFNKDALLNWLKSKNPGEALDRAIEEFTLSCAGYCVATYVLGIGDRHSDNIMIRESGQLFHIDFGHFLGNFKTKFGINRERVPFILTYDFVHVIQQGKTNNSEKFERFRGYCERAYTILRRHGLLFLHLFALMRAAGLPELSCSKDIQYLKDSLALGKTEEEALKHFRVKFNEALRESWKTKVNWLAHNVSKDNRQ
T4 sequence (P27986 whole entry partner): as the sequence (P27986 whole entry partner) above
T1 sequence (P42338 whole entry): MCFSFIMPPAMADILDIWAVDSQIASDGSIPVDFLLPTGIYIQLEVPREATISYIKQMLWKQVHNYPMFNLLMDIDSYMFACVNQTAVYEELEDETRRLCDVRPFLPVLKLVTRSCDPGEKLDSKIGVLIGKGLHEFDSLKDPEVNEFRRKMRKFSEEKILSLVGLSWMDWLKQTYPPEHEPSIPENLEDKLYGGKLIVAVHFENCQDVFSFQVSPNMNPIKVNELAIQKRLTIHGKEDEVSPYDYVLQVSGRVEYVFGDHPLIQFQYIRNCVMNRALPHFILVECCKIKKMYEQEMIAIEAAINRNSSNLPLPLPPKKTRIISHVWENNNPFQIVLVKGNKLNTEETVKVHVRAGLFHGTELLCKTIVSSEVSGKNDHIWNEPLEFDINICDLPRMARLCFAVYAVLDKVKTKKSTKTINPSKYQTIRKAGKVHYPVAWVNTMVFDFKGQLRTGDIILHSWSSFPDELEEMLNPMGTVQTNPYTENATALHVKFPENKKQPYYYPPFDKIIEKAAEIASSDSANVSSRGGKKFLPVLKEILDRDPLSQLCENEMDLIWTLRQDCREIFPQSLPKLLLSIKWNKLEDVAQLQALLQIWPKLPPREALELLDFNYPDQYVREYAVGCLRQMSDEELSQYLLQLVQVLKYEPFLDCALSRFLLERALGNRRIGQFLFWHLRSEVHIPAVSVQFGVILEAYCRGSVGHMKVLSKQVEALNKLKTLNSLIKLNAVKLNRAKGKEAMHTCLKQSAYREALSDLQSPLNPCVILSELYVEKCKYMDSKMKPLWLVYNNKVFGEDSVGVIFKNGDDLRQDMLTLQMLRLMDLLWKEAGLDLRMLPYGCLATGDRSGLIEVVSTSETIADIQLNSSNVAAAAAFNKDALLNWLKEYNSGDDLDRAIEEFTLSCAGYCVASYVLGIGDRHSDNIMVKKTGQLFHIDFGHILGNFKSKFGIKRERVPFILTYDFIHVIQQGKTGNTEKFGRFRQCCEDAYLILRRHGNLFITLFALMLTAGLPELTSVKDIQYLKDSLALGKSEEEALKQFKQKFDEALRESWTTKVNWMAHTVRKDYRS
T1 sequence (P27986 whole entry partner): as the sequence (P27986 whole entry partner) above

Turning to `COc1cc(OC)cc(-n2cc(-c3cccc4c(=O)cc(N5CCOCC5)[nH]c34)nn2)c1` [Compound 47, 8‐[1‐(3,5‐Dimethoxyphenyl)‐1H‐1,2,3‐triazol‐4‐yl]‐2‐morpholinoquinolin‐4(1H)‐one], the inhibition at 1 µM (in assay [1]; in assay [2]; at hPI3Kγ (PIK3CG); at hPI3Kδ (PIK3CD/PIK3R1)) was less than 50% in each case.

As a reminder, the IC50 is the midpoint of a concentration-inhibition curve. In the case of `O=C(O)CCCCCn1cc(-c2cccc3c(=O)cc(N4CCOCC4)[nH]c23)nn1` [Compound 57], in assay [2], the IC50 is greater than 1000 nM.

As to `O=c1cc(N2CCOCC2)[nH]c2c(-c3cn(-c4ccc(Cl)cc4)nn3)cccc12` [Compound 28, 8‐[1‐(4‐Chlorophenyl)‐1H‐1,2,3‐triazol‐4‐yl]‐2‐morpholinoquinolin‐4(1H)‐one], the inhibition at 1 µM (in assay [1]; in assay [2]; on hPI3Kγ (PIK3CG); at hPI3Kδ (PIK3CD/PIK3R1)) was less than 50% in each case.

For `COc1ccc(-n2cc(-c3cccc4c(=O)cc(N5CCOCC5)[nH]c34)nn2)cc1O` [Compound 27, 8‐[1‐(3‐Hydroxy‐4‐methoxyphenyl)‐1H‐1,2,3‐triazol‐4‐yl]‐2‐morpholinoquinolin‐4(1H)‐one], the inhibition at 1 µM (in assay [1]; in assay [2]; on hPI3Kγ (PIK3CG); on hPI3Kδ (PIK3CD/PIK3R1)) was less than 50% in each case.

With `O=C(NCc1ccccc1)c1cccc(Cn2cc(-c3cccc4c(=O)cc(N5CCOCC5)[nH]c34)nn2)c1` [Compound 60, N ‐Benzyl‐3‐{[4‐(2‐morpholino‐4‐oxo‐1,4‐dihydroquinolin‐8‐yl)‐1H‐1,2,3‐triazol‐1‐yl]methyl}benzamide], the IC50 in assay [2] is 140 ± 90 nM.

For the molecule `COC(=O)c1cccc(-n2cc(-c3cccc4c(=O)cc(N5CCOCC5)[nH]c34)nn2)c1` [Compound 49, Methyl 3‐[4‐(2‐morpholino‐4‐oxo‐1,4‐dihydroquinolin‐8‐yl)‐1H‐1,2,3‐triazol‐1‐yl]benzoate], the inhibition at 1 µM (in assay [1]; in assay [2]; at hPI3Kγ (PIK3CG); at hPI3Kδ (PIK3CD/PIK3R1)) was less than 50% in each case.

Regarding `COc1ccc(NC(C)=O)cc1-n1cc(-c2cccc3c(=O)cc(N4CCOCC4)[nH]c23)nn1` [Compound 38, N ‐{4‐Methoxy‐3‐[4‐(2‐morpholino‐4‐oxo‐1,4‐dihydroquinolin‐8‐yl)‐1H‐1,2,3‐triazol‐1‐yl]phenyl}acetamide], the inhibition at 1 µM (in assay [1]; in assay [2]; on hPI3Kγ (PIK3CG); at hPI3Kδ (PIK3CD/PIK3R1)) was less than 50% in each case.

Take `Nc1ccc(-n2cc(-c3cccc4c(=O)cc(N5CCOCC5)[nH]c34)nn2)cc1` [Compound 32, 8‐[1‐(4‐Aminophenyl)‐1H‐1,2,3‐triazol‐4‐yl]‐2‐morpholinoquinolin‐4(1H)‐one]: the inhibition at 1 µM (in assay [1]; in assay [2]; on hPI3Kγ (PIK3CG); at hPI3Kδ (PIK3CD/PIK3R1)) was less than 50% throughout.

As for `O=c1cc(N2CCOCC2)[nH]c2c(-c3cn(-c4cccc5ccccc45)nn3)cccc12` [Compound 53, 2‐Morpholino‐8‐[1‐(naphthalen‐1‐yl)‐1H‐1,2,3‐triazol‐4‐yl]quinolin‐4(1H)‐one], the inhibition at 1 µM (in assay [1]; in assay [2]; at hPI3Kγ (PIK3CG); at hPI3Kδ (PIK3CD/PIK3R1)) was less than 50% each time.

Consider `NS(=O)(=O)c1ccc(-n2cc(-c3cccc4c(=O)cc(N5CCOCC5)[nH]c34)nn2)cc1` [Compound 50, 4‐[4‐(2‐Morpholino‐4‐oxo‐1,4‐dihydroquinolin‐8‐yl)‐1H‐1,2,3‐triazol‐1‐yl]benzenesulfonamide], for which the inhibition at 1 µM (in assay [1]; in assay [2]; on hPI3Kγ (PIK3CG); at hPI3Kδ (PIK3CD/PIK3R1)) was less than 50% in each case.

In the case of `NC(=O)c1cccc(Cn2cc(-c3cccc4c(=O)cc(N5CCOCC5)[nH]c34)nn2)c1` [Compound 59, 3‐{[4‐(2‐Morpholino‐4‐oxo‐1,4‐dihydroquinolin‐8‐yl)‐1H‐1,2,3‐triazol‐1‐yl]methyl}benzamide], the IC50 in assay [2] is 800 ± 740 nM.

In the case of `O=c1cc(N2CCOCC2)[nH]c2c(-c3cn(-c4ccc(OC(F)(F)F)cc4)nn3)cccc12` [Compound 29, 2‐Morpholino‐8‐{1‐[4‐(trifluoromethoxy)phenyl]‐1H‐1,2,3‐triazol‐4‐yl}quinolin‐4(1H)‐one], the inhibition at 1 µM (in assay [1]; in assay [2]; at hPI3Kγ (PIK3CG); at hPI3Kδ (PIK3CD/PIK3R1)) was less than 50% in each case.

Turning to `CCN(CC)C(=O)c1cccc(Cn2cc(-c3cccc4c(=O)cc(N5CCOCC5)[nH]c34)nn2)c1` [Compound 62, N,N ‐Diethyl‐3‐{[4‐(2‐morpholino‐4‐oxo‐1,4‐dihydroquinolin‐8‐yl)‐1H‐1,2,3‐triazol‐1‐yl]methyl}benzamide], the IC50 in assay [2] came to 290 ± 80 nM.

Regarding `COc1ccc(-n2cc(-c3cccc4c(=O)cc(N5CCOCC5)[nH]c34)nn2)cc1OC` [Compound 43, 8‐[1‐(3,4‐Dimethoxyphenyl)‐1H‐1,2,3‐triazol‐4‐yl]‐2‐morpholinoquinolin‐4(1H)‐one], the inhibition at 1 µM (in assay [1]; in assay [2]; at hPI3Kγ (PIK3CG); at hPI3Kδ (PIK3CD/PIK3R1)) was less than 50% in each case.

Take `COC(=O)c1ccc(Cn2cc(-c3cccc4c(=O)cc(N5CCOCC5)[nH]c34)nn2)cc1` [Compound 31, Methyl‐4‐{[4‐(2‐morpholino‐4‐oxo‐1,4‐dihydroquinolin‐8‐yl)‐1H‐1,2,3‐triazol‐1‐yl]methyl}benzoate]: the inhibition at 1 µM (in assay [1]; in assay [2]; on hPI3Kγ (PIK3CG); at hPI3Kδ (PIK3CD/PIK3R1)) was less than 50% in each case.

For the molecule `O=C(O)CCCn1cc(-c2cccc3c(=O)cc(N4CCOCC4)[nH]c23)nn1` [Compound 55, 4‐[4‐(2‐Morpholino‐4‐oxo‐1,4‐dihydroquinolin‐8‐yl)‐1H‐1,2,3‐triazol‐1‐yl]butanoic acid], in assay [2], the IC50 was greater than 1000 nM.

`O=c1cc(N2CCOCC2)[nH]c2c(-c3cn(Cc4cccc(-c5nnn[nH]5)c4)nn3)cccc12` [Compound 63, 8‐{1‐[3‐(1H‐Tetrazol‐5‐yl)benzyl]‐1H‐1,2,3‐triazol‐4‐yl}‐2‐morpholinoquinolin‐4(1H)‐one]: in assay [2], the IC50 was greater than 1000 nM.

On to `O=C(O)CCCCn1cc(-c2cccc3c(=O)cc(N4CCOCC4)[nH]c23)nn1` [Compound 56, 5‐[4‐(2‐Morpholino‐4‐oxo‐1,4‐dihydroquinolin‐8‐yl)‐1H‐1,2,3‐triazol‐1‐yl]pentanoic acid], for which the IC50 in assay [2] is greater than 1000 nM.

As to `CS(=O)(=O)NC(=O)c1cccc(Cn2cc(-c3cccc4c(=O)cc(N5CCOCC5)[nH]c34)nn2)c1` [Compound 58, N ‐(Methylsulfonyl)‐3‐{[4‐(2‐morpholino‐4‐oxo‐1,4‐dihydroquinolin‐8‐yl)‐1H‐1,2,3‐triazol‐1‐yl]methyl}benzamide], the 50% inhibitory concentration (IC50) in assay [2] was greater than 1000 nM.

As for `O=C(NC1CC1)c1cccc(Cn2cc(-c3cccc4c(=O)cc(N5CCOCC5)[nH]c34)nn2)c1` [Compound 61, N ‐Cyclopropyl‐3‐{[4‐(2‐morpholino‐4‐oxo‐1,4‐dihydroquinolin‐8‐yl)‐1H‐1,2,3‐triazol‐1‐yl]methyl}benzamide], the IC50 in assay [2] was 250 ± 80 nM.
